According to publication PMC2099433, “The binding site for neohesperidin dihydrochalcone at the human sweet taste receptor” (BMC Structural Biology, 2007):
Numbering of substitutions follows the chain as printed. Where a SMILES comes first, the peptide text is derived from it.

Tests used:
[1] = target: T1, hTAS1R2 + hTAS1R3 F624L^2.61 (Homo sapiens, UniProt Q7RTX0+Q8TE23, F624L); experiment: Calcium response (FLIPR), hTAS1R3 mutant coexpressed with hTAS1R2; format: cell-based; settings: variant F624L^2.61; for EC50: (>) EC50 not calculable because saturation is not reached; for Emax: read-out: maximal signal (% of wt)
T1 construct: expressed in transfected cells; host or cells: HEK293T cells stably expressing G16Gust44
T1 sequence (Q8TE23 20-839): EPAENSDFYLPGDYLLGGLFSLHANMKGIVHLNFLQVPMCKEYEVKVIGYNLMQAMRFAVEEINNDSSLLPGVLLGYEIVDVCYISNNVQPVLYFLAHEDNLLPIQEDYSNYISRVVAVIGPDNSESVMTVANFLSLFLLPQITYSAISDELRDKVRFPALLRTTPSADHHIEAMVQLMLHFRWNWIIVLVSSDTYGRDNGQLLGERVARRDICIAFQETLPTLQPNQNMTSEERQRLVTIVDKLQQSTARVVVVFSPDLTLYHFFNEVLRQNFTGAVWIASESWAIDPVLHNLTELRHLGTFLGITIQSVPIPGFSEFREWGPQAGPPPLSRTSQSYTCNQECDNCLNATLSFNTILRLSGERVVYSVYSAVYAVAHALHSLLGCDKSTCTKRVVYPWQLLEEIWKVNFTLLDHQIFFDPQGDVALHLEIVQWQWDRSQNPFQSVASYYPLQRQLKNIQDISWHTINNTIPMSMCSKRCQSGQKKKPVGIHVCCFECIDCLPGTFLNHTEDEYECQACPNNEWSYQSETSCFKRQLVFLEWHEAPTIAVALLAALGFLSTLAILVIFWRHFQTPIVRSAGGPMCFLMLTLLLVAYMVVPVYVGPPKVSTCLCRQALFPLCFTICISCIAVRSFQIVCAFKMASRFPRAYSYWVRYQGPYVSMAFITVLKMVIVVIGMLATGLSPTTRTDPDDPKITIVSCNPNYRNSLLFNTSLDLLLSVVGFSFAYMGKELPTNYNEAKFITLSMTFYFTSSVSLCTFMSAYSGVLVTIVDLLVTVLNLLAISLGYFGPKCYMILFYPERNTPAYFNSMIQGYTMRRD
T1 sequence (Q7RTX0 21-852 F624L): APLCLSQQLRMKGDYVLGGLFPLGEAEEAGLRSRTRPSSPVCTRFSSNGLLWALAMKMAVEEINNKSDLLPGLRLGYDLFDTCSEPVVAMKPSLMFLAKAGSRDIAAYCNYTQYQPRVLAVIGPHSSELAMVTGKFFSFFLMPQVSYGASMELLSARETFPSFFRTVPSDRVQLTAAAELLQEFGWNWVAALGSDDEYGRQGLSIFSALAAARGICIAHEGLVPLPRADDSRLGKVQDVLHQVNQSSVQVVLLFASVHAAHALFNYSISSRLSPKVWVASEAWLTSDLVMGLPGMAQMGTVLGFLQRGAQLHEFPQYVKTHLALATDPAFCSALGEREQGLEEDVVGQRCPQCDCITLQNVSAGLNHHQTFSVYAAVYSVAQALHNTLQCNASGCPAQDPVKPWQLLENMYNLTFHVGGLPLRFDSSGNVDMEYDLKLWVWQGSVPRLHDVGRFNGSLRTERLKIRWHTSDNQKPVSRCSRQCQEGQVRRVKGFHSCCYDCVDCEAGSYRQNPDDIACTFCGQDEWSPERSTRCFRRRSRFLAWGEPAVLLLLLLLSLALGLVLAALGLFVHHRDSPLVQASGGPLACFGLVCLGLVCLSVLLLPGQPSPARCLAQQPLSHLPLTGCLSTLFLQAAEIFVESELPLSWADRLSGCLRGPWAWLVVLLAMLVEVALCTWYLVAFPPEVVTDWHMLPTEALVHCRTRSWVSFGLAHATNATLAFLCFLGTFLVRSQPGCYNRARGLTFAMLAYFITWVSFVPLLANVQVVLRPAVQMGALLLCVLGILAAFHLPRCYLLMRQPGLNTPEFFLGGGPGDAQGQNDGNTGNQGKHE
Method in brief: (§1)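 Read-out: FLIPR calcium signal as ΔF/F = (F-F0)/F0, corrected for mock-transfected cells. Cells were HEK293T stably carrying G16Gust44, transiently transfected with HSV-tagged receptor cDNAs and dye-loaded with Fluo4-AM 24 h post transfection.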

[2] = target: T2, hTAS1R2 + hTAS1R3 Q636A^3.28 (Homo sapiens, UniProt Q7RTX0+Q8TE23, Q636A); experiment: as above; format: cell-based; settings: variant Q636A^3.28; for Emax: read-out: maximal signal (% of wt)
T2 construct: expressed in transfected cells; host or cells: HEK293T cells stably expressing G16Gust44
T2 sequence (Q8TE23 20-839): T1 sequence (Q8TE23 20-839)
T2 sequence (Q7RTX0 21-852 Q636A): T1 sequence (Q7RTX0 21-852 F624L) with L604F, Q616A
Method in brief: as §1

Row | EC50 [1] | Emax [1] | EC50 [2] | Emax [2] | SMILES
1 | > 1 mM | 35 ± 70% | 300 ± 200 µM | 61 ± 29% | COc1ccc(CCC(=O)c2c(O)cc(O[C@@H]3O[C@H](CO)[C@@H](O)[C@H](O)[C@H]3O[C@@H]3O[C@@H](C)[C@H](O)[C@@H](O)[C@H]3O)cc2O)cc1O [NHDC, neohesperidin dihydrochalcone]
2 | 1.4 ± 0.2 mM | 21 ± 4% | 1100 ± 100 µM | 70 ± 18% | COC(=O)[C@H](Cc1ccccc1)NC(=O)[C@@H](N)CC(=O)O [aspartame] (HELM PEPTIDE1{D.F.[CO[*:1]]}$$$$V2.0)
